Assays:
[1] = test system: early breast cancer patient treated with an anthracycline anticancer drug; conditions: cited from earlier work
[2] = test system: pediatric cancer patient having drug-induced myocardial dysfunction caused by an anthracycline anticancer drug; conditions: cited from earlier work
[3] = test system: myocardial dysfunction model mice induced by doxorubicin; experiment: Myocardial tissue fibrosis, Picro-sirius Red staining, after α-GalCer; type: in vivo, C57BL/6 mice; conditions: α-GalCer 0.1 μg/g i.p. before and after doxorubicin 20 mg/kg; heart collected 14 days after DOX; vs DOX group; FIG. 3
Method: Eight-week-old male C57BL/6 mice were divided into three groups (Control group, DOX group, and DOX+α-GC group). α-GalCer (KRN7000 (Funakoshi Co., Ltd.); 0.1 μg/g weight) was intraperitoneally administered to the DOX+α-GC group, while PBS was intraperitoneally administered to the Control group and the DOX group. Four days after the administration, doxorubicin (Doxorubicin hydrochloride, D1515 (SIGMA-ALDRICH); 20 mg/kg weight) was intraperitoneally administered to the DOX group and the DOX+α-GC group, while Vehicle (PBS) was intraperitoneally administered to the Control group. […] Fourteen days after the administration of DOX or PBS, echocardiography was performed for mice of each of the groups to evaluate their cardiac functions, and subsequently, the hearts of the mice were collected to perform pathological evaluation of myocardial tissue fibrosis and evaluation of inflammatory cytokine expression by using a quantitative real-time RT-PCR method. […]
Myocardial tissue fibrosis was evaluated by fixing a frozen section sample of myocardial tissue with 10% formalin and then staining the sample with 3% Picro-sirius Red (100 ml of Van Gieson Solution P (FUJIFILM Wako Pure Chemical Corporation)+3 ml of 1% Sirius Red (MUTO PURE CHEMICALS CO., LTD.)) to detect collagen. […]

[4] = test system: post-myocardial infarction heart failure; conditions: ischemic heart failure; earlier work of the inventors; cited from earlier work
[5] = test system: inflammatory cytokine expression in myocardial tissues; experiment: Inflammatory cytokine gene expression in myocardial tissue, quantitative real-time RT-PCR; type: in vivo, C57BL/6 mice; conditions: 14 days after DOX
Method: (§1) Eight-week-old male C57BL/6 mice were divided into three groups (Control group, DOX group, and DOX+α-GC group). α-GalCer (KRN7000 (Funakoshi Co., Ltd.); 0.1 μg/g weight) was intraperitoneally administered to the DOX+α-GC group, while PBS was intraperitoneally administered to the Control group and the DOX group. Four days after the administration, doxorubicin (Doxorubicin hydrochloride, D1515 (SIGMA-ALDRICH); 20 mg/kg weight) was intraperitoneally administered to the DOX group and the DOX+α-GC group, while Vehicle (PBS) was intraperitoneally administered to the Control group. Three days after the administration of DOX or PBS, α-GalCer (0.1 μg/g weight) was intraperitoneally administered to the DOX+α-GC group, while PBS was intraperitoneally administered to the Control group and the DOX group. Fourteen days after the administration of DOX or PBS, echocardiography was performed for mice of each of the groups to evaluate their cardiac functions, and subsequently, the hearts of the mice were collected to perform pathological evaluation of myocardial tissue fibrosis and evaluation of inflammatory cytokine expression by using a quantitative real-time RT-PCR method. FIG. 1 illustrates the test schedules.
Furthermore, total RNA was extracted from myocardial tissues using QuickGene-810 (FUJIFILM Corporation), and subjected to a reverse transcription reaction using a cDNA reverse transcription kit (Applied Biosystems) to prepare cDNA. Using this cDNA as a template, a quantitative real-time RT-PCR was performed by the TaqMan method to evaluate the expression of inflammatory cytokine. Primer sets and probes used (all of them from Applied Biosystems) were as follows. GAPDH was used as an endogenous control. • IFN-γ: TaqMan Gene Expression Assays, Mm01168134 ml • TNF-α: TaqMan Gene Expression Assays, Mm00443258 ml • IL-1β: TaqMan Gene Expression Assays, Mm00434228 ml • TGF-β1: TaqMan Gene Expression Assays, Mm01178820 ml • IL-4: TaqMan Gene Expression Assays, Mm00445259 ml • IL-10: TaqMan Gene Expression Assays, Mm01288386 ml • GAPDH: Mouse GAPD (20X), Probe dye VIC-MGB

[6] = test system: myocardial dysfunction model mice induced by doxorubicin; experiment: Echocardiography (left ventricular fractional shortening) after α-GalCer in doxorubicin myocardial dysfunction model; type: in vivo, C57BL/6 mice; conditions: α-GalCer 0.1 μg/g i.p. 4 days before and 3 days after doxorubicin 20 mg/kg i.p.; echocardiography 14 days after DOX; vs DOX group; FIG. 2
Method: as §1
The echocardiography was carried out by using an ultrasound recording device EUB-8000 (Hitachi, Ltd.) under anesthesia with pentobarbital. […]

[7] = test system: activated, M1 and M2 macrophage markers in myocardial tissues; experiment: Macrophage marker gene expression in myocardial tissue, quantitative real-time RT-PCR; type: in vivo, C57BL/6 mice; conditions: 14 days after DOX, FIG. 6
Method: Eight-week-old male C57BL/6 mice were divided into three groups (Control group, DOX group, and DOX+α-GC group). α-GalCer (KRN7000 (Funakoshi Co., Ltd.); 0.1 μg/g weight) was intraperitoneally administered to the DOX+α-GC group, while PBS was intraperitoneally administered to the Control group and the DOX group. Four days after the administration, doxorubicin (Doxorubicin hydrochloride, D1515 (SIGMA-ALDRICH); 20 mg/kg weight) was intraperitoneally administered to the DOX group and the DOX+α-GC group, while Vehicle (PBS) was intraperitoneally administered to the Control group. Three days after the administration of DOX or PBS, α-GalCer (0.1 μg/g weight) was intraperitoneally administered to the DOX+α-GC group, while PBS was intraperitoneally administered to the Control group and the DOX group. Fourteen days after the administration of DOX or PBS, echocardiography was performed for mice of each of the groups to evaluate their cardiac functions, and subsequently, the hearts of the mice were collected to perform pathological evaluation of myocardial tissue fibrosis and evaluation of inflammatory cytokine expression by using a quantitative real-time RT-PCR method. FIG. 1 illustrates the test schedules. Furthermore, using the above-mentioned cDNA as a template, a quantitative real-time RT-PCR was performed by the TaqMan method using the following primer sets and probes (all of them from Applied Biosystems) to evaluate the expression of CD11c and MHC II (activated macrophage markers), MCP-1, iNOS, and IL-1β (M1 macrophage markers), and […] and Arginase 1 (Arg1) (M2 macrophage markers). GAPDH was used as an endogenous control. • CD11c: TaqMan Gene Expression Assays, Mm00498701 ml • MHC II (H2-A1): TaqMan Gene Expression Assays, Mm00439211 ml • MCP1 (CCL2): TaqMan Gene Expression Assays, Mm00441242 ml • iNOS (NOS2): TaqMan Gene Expression Assays, Mm00440502 ml • IL-1β: TaqMan Gene Expression Assays, Mm00434228 ml • […]: TaqMan Gene Expression Assays, Mm00445109 ml • Arg1: TaqMan Gene Expression Assays, Mm00475988 ml • GAPDH: Mouse GAPD (20X), Probe dye VIC-MGB

[8] = comparison between the three groups

## COCCc1ccc(OCC(O)CNC(C)C)cc1 (stereo not shown) [metoprolol]
[1]
  decrease in left ventricular ejection fraction: did not prevent the decrease in left ventricular ejection fraction

## CCOC(=O)[C@H](CCc1ccccc1)N[C@@H](C)C(=O)N1CCC[C@H]1C(=O)O [enalapril]
[2]
  left ventricular end-systolic wall stress: reduced a left ventricular end-systolic wall stress
  other important parameters reflecting a motor ability and the like: failed to improve other important parameters reflecting a motor ability and the like

## CCCCCCCCCCCCCCCCCCCCCCCCCC(=O)N[C@@H](CO[C@H]1O[C@H](CO)[C@H](O)[C@H](O)[C@H]1O)[C@H](O)[C@H](O)CCCCCCCCCCCCCC [α-GalCer, α-galactosylceramide]
[3]
  myocardial tissue fibrosis (ratio of stained area): the progression as observed in the DOX group was significantly suppressed
[4]
  therapeutic effect on post-myocardial infarction heart failure: confirmed therapeutic effects
[5]; DOX+α-GC group vs Control and DOX groups, FIG. 5
  expression of IFN-γ in myocardial tissue: tended to be more enhanced in the DOX+α-GC group than in other groups
[5]; DOX+α-GC group vs Control and DOX groups, GAPDH endogenous control, FIG. 4, FIG. 5
  expression of interleukin-4 (IL-4) in myocardial tissue: tended to be more enhanced in the DOX+α-GC group than in other groups
[5]; comparison between Control, DOX and DOX+α-GC groups, FIG. 5
  expression of other cytokines such as IL-10 in myocardial tissue: any significant difference in the expression of other cytokines such as IL-10 between the three groups was not observed
[6]
  cardiac function, left ventricular fractional shortening (% FS): did not show the decrease in cardiac function as observed in the DOX group
[7]; DOX+α-GC group vs other groups
  expression of Arg1 (M2 macrophage marker) in myocardial tissue: more enhanced in the DOX+α-GC group than in other groups
  expression of CD11c (activated macrophage marker) in myocardial tissue: more enhanced in the DOX+α-GC group than in other groups
  expression of MHC II (activated macrophage marker) in myocardial tissue: more enhanced in the DOX+α-GC group than in other groups
  expression of Retnla (M2 macrophage marker) in myocardial tissue: more enhanced in the DOX+α-GC group than in other groups
[7]; [8]
  expression of IL-1β (M1 macrophage marker) in myocardial tissue: any significant difference in the expression of MCP-1, iNOS, and IL-1β as M1 macrophage markers between the three groups was not observed
  expression of MCP-1 (M1 macrophage marker) in myocardial tissue: any significant difference in the expression of MCP-1, iNOS, and IL-1β as M1 macrophage markers between the three groups was not observed
  expression of iNOS (M1 macrophage marker) in myocardial tissue: any significant difference in the expression of MCP-1, iNOS, and IL-1β as M1 macrophage markers between the three groups was not observed

— patent publication US20220160659A1, “PHARMACEUTICAL COMPOSITION COMPRISING a-GALACTOSYLCERAMIDE AND/OR DENDRITIC CELLS PULSED WITH a-GALACTOSYLCERAMIDE” (National University Corporation Hokkaido University, priority 2019, published 2022)
